# Assay results taken from the supplement of paper PMC10307832.
# Key:
# Assay in all cases: relative viability (nuclei count vs DMSO), 5 days (fraction); higher = more cells survive
# A-427 = system: A-427
# Method in brief: (§1)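 Relative viability is defined as nuclei in treated wells over nuclei in vehicle wells. Duplicate plates were run and medians reported. Lung cancer cell lines in 1536-well plates were dosed by pin tool one day after seeding, with one drug or with a fixed anchor-drug dose plus five library-drug doses (not always all listed) in √10 steps, and nuclei were counted after 5 days.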
# HCC-15 = system: HCC-15
# Method in brief: as §1
# HCC-78 = system: HCC-78
# Method in brief: as §1
# HOP-62 = system: HOP-62
# Method in brief: as §1
# LC-2-ad = system: LC-2-ad
# Method in brief: as §1
# LXF-289 = system: LXF-289
# Method in brief: as §1
# NCI-H1734 = system: NCI-H1734
# Method in brief: as §1
# NCI-H1755 = system: NCI-H1755
# Method in brief: as §1
# NCI-H1792 = system: NCI-H1792
# Method in brief: as §1
# NCI-H1915 = system: NCI-H1915
# Method in brief: as §1
compound,measurement,setting,value
COc1cc2nccc(Oc3ccc(NC(=O)Nc4cc(C)on4)c(Cl)c3)c2cc1OC [Tivozanib] + CC(C)C[C@H](NC(=O)[C@H](Cc1ccccc1)NC(=O)c1cnccn1)B(O)O [Bortezomib] (partner 0.002 µM),relative viability,A-427; first compound 0.005 µM,0.988
same,relative viability,A-427; first compound 0.01581 µM,1.03
same,relative viability,A-427; first compound 0.05 µM,0.962
same,relative viability,A-427; first compound 0.1581 µM,0.893
same,relative viability,A-427; first compound 0.5 µM,0.932
same,relative viability,HCC-15; first compound 0.005 µM,0.98
same,relative viability,HCC-15; first compound 0.01581 µM,1.04
same,relative viability,HCC-15; first compound 0.05 µM,1.08
same,relative viability,HCC-15; first compound 0.1581 µM,1.04
same,relative viability,HCC-15; first compound 0.5 µM,1.03
same,relative viability,HCC-78; first compound 0.005 µM,0.383
same,relative viability,HCC-78; first compound 0.01581 µM,0.496
same,relative viability,HCC-78; first compound 0.05 µM,0.57
same,relative viability,HCC-78; first compound 0.1581 µM,0.549
same,relative viability,HCC-78; first compound 0.5 µM,0.452
same,relative viability,HOP-62; first compound 0.005 µM,0.708
same,relative viability,HOP-62; first compound 0.01581 µM,0.659
same,relative viability,HOP-62; first compound 0.05 µM,0.548
same,relative viability,HOP-62; first compound 0.1581 µM,0.565
same,relative viability,HOP-62; first compound 0.5 µM,0.819
same,relative viability,LC-2-ad; first compound 0.005 µM,0.951
same,relative viability,LC-2-ad; first compound 0.01581 µM,1.04
same,relative viability,LC-2-ad; first compound 0.05 µM,0.971
same,relative viability,LC-2-ad; first compound 0.1581 µM,0.867
same,relative viability,LC-2-ad; first compound 0.5 µM,0.843
same,relative viability,LXF-289; first compound 0.005 µM,0.952
same,relative viability,LXF-289; first compound 0.01581 µM,0.956
same,relative viability,LXF-289; first compound 0.05 µM,0.959
same,relative viability,LXF-289; first compound 0.1581 µM,1.03
same,relative viability,LXF-289; first compound 0.5 µM,0.964
same,relative viability,NCI-H1734; first compound 0.005 µM,0.757
same,relative viability,NCI-H1734; first compound 0.01581 µM,0.904
same,relative viability,NCI-H1734; first compound 0.05 µM,1.01
same,relative viability,NCI-H1734; first compound 0.1581 µM,0.677
same,relative viability,NCI-H1734; first compound 0.5 µM,0.854
same,relative viability,NCI-H1755; first compound 0.005 µM,0.911
same,relative viability,NCI-H1755; first compound 0.01581 µM,0.935
same,relative viability,NCI-H1755; first compound 0.05 µM,1.01
same,relative viability,NCI-H1755; first compound 0.1581 µM,0.577
same,relative viability,NCI-H1755; first compound 0.5 µM,0.86
same,relative viability,NCI-H1792; first compound 0.005 µM,0.961
same,relative viability,NCI-H1792; first compound 0.01581 µM,0.967
same,relative viability,NCI-H1792; first compound 0.05 µM,0.965
same,relative viability,NCI-H1792; first compound 0.1581 µM,0.989
same,relative viability,NCI-H1792; first compound 0.5 µM,0.947
same,relative viability,NCI-H1915; first compound 0.005 µM,0.945
same,relative viability,NCI-H1915; first compound 0.01581 µM,0.986
